Assay results reported in patent publication US20220348558A1, “INHIBITORS OF ENCEPHALITIC ALPHAVIRUSES” (priority 2019, published 2022).

How the values were obtained:
VEEV TC83 = test: microbe, parasite or virus in culture; type: cell-based; conditions: Venezuelan equine encephalitis virus, Vero 76, 48 h, read-out: VEEV TC83 EC50 nM
WEEV California = test: microbe, parasite or virus in culture; type: cell-based; conditions: Western equine encephalitis virus, Vero 76, 48 h, read-out: WEEV California EC50 nM

| Compound | EC50 (VEEV TC83) | EC50 (WEEV California) |
| --- | --- | --- |
| COc1ccc(-n2c(C3CCCN3)nc3c(-c4ccc(N5CCN(C)CC5)nc4)cc(C#N)cc3c2=O)cc1F (stereo not drawn) [Example 132, 3-(3-fluoro-4-methoxyphenyl)-8-(6-(4-methylpiperazin-1-yl)pyridin-3-yl)-4-oxo-2-(pyrrolidin-2-yl)-3,4-dihydroquinazoline-6-carbonitrile] | 1 to 50 nM | 1 to 50 nM |
| COc1c(F)cc(-n2c(C3C[C@H](F)CN3)nc3c(-c4ccnc(C)c4)cc(C#N)cc3c2=O)cc1F (stereo partly drawn) [Example 156, 3-(3,5-Difluoro-4-methoxyphenyl)-2-((4S)-4-fluoropyrrolidin-2-yl)-8-(2-methylpyridin-4-yl)-4-oxo-3,4-dihydroquinazoline-6-carbonitrile] | 1 to 50 nM | 151 to 500 nM |
| CN1CCC(N2CCC[C@@H]2c2nc3ccc([N+](=O)[O-])cc3c(=O)n2-c2ccccc2)CC1 [Example 4, (R)-2-(1-(1-methylpiperidin-4-yl)pyrrolidin-2-yl)-6-nitro-3-phenylquinazolin-4 (3H)-one] | 151 to 500 nM | > 1000 nM |
| COc1ccc(-n2c([C@H]3CCCN3)nc3c(C(F)(F)F)cc(C#N)cc3c2=O)cc1F [Example 76, (R)-3-(3-fluoro-4-methoxyphenyl)-4-oxo-2-(pyrrolidin-2-yl)-8-(trifluoromethyl)-3,4-dihydroquinazoline-6-carbonitrile] | 1 to 50 nM | 1 to 50 nM |
| COc1ccc(-n2c(C3CCCN3)nc3c(-c4ccc(OC)c(OC)c4)cc(C#N)cc3c2=O)cc1F (stereo not drawn) [Example 152, 8-(3,4-Dimethoxyphenyl)-3-(3-fluoro-4-methoxyphenyl)-4-oxo-2-(pyrrolidin-2-yl)-3,4-dihydroquinazoline-6-carbonitrile] | 1 to 50 nM | 1 to 50 nM |
| COc1cccc(-c2cc(C#N)cc3c(=O)n(-c4ccc(OC)c(F)c4)c(C4CCCN4)nc23)c1 (stereo not drawn) [Example 148, 3-(3-Fluoro-4-methoxyphenyl)-8-(3-methoxyphenyl)-4-oxo-2-(pyrrolidin-2-yl)-3,4-dihydroquinazoline-6-carbonitrile] | 1 to 50 nM | 1 to 50 nM |
| COc1ccc(-n2c([C@@H]3CCN(C)C3)nc3c(C)cc([N+](=O)[O-])cc3c2=O)cc1F [Example 68, (R)-3-(3-fluoro-4-methoxyphenyl)-8-methyl-2-(1-methylpyrrolidin-3-yl)-6-nitroquinazolin-4 (3H)-one] | 151 to 500 nM | 151 to 500 nM |
| COc1ccc(-n2c([C@H]3CCCN3)nc3c(-c4cncnc4)cc(C#N)cc3c2=O)cc1F [Example 105, (R)-3-(3-fluoro-4-methoxyphenyl)-4-oxo-8-(pyrimidin-5-yl)-2-(pyrrolidin-2-yl)-3,4-dihydroquinazoline-6-carbonitrile] | 51 to 150 nM | 151 to 500 nM |
| COc1ccc(-n2c([C@@]3(C)CCCN3)nc3c(-c4ccc(C)nc4)cc(C#N)cc3c2=O)cc1F [Example 141, (R)-3-(3-fluoro-4-methoxyphenyl)-8-(6-methylpyridin-3-yl)-2-(2-methylpyrrolidin-2-yl)-4-oxo-3,4-dihydroquinazoline-6-carbonitrile] | 1 to 50 nM | 1 to 50 nM |
| COc1ccc(-n2c([C@@H]3CCCN3)nc3c(-c4cccnc4)cc(C#N)cc3c2=O)cc1F [Example 108, (S)-3-(3-fluoro-4-methoxyphenyl)-4-oxo-8-(pyridin-3-yl)-2-(pyrrolidin-2-yl)-3,4-dihydroquinazoline-6-carbonitrile] | 1 to 50 nM | 1 to 50 nM |
| COc1ccc(-n2c([C@@H]3CCCN3)nc3ccc(C#N)cc3c2=O)cc1 [Example 15, (S)-3-(4-methoxyphenyl)-4-oxo-2-(pyrrolidin-2-yl)-3,4-dihydroquinazoline-6-carbonitrile] | 51 to 150 nM | 501 to 1000 nM |
| COc1ccc(-n2c([C@@H]3CCCN3)nc3c(F)cc(C#N)cc3c2=O)cc1 [Example 79, (S)-8-fluoro-3-(4-methoxyphenyl)-4-oxo-2-(pyrrolidin-2-yl)-3,4-dihydroquinazoline-6-carbonitrile] | 501 to 1000 nM | 501 to 1000 nM |
| COc1ccc(-n2c([C@H]3CCCN3)nc3c(-c4ccc(F)nc4)cc(C#N)cc3c2=O)cc1F [Example 99, (R)-3-(3-fluoro-4-methoxyphenyl)-8-(6-fluoropyridin-3-yl)-4-oxo-2-(pyrrolidin-2-yl)-3,4-dihydroquinazoline-6-carbonitrile] | 1 to 50 nM | 1 to 50 nM |
| COc1ccc(-n2c(-c3ccccn3)nc3c(-c4ccc(C)nc4)cc(C#N)cc3c2=O)cc1F [Example 196, 3-(3-fluoro-4-methoxyphenyl)-8-(6-methylpyridin-3-yl)-4-oxo-2-(pyridin-2-yl)-3,4-dihydroquinazoline-6-carbonitrile] | > 1000 nM | > 1000 nM |
| COc1ccc(-n2c([C@@H]3C[C@@H](F)CN3)nc3c(C)cc([N+](=O)[O-])cc3c2=O)cc1F [Example 64, 2-((2S,4R)-4-fluoropyrrolidin-2-yl)-3-(3-fluoro-4-methoxyphenyl)-8-methyl-6-nitroquin-azolin-4 (3H)-one] | > 1000 nM | > 1000 nM |
| COc1ccc(-n2c([C@H]3CCCN3)nc3c(C)cc(C#N)cc3c2=O)cc1F [Example 52, (R)-3-(3-fluoro-4-methoxyphenyl)-8-methyl-4-oxo-2-(pyrrolidin-2-yl)-3,4-dihydroquinazoline-6-carbonitrile] | 1 to 50 nM | 1 to 50 nM |
| COc1ccc(-n2c(-c3cn(C)cn3)nc3c(-c4ccc(C)nc4)cc(C#N)cc3c2=O)cc1F [Example 200, 3-(3-fluoro-4-methoxyphenyl)-2-(1-methyl-1H-imidazol-4-yl)-8-(6-methylpyridin-3-yl)-4-oxo-3,4-dihydroquinazoline-6-carbonitrile] | > 1000 nM | > 1000 nM |
| COc1ccc(-n2c([C@H]3CCCN3)nc3cc(C)c([N+](=O)[O-])cc3c2=O)cc1 [Example 43, (R)-3-(4-methoxyphenyl)-7-methyl-6-nitro-2-(pyrrolidin-2-yl) quinazolin-4 (3H)-one] | 1 to 50 nM | 1 to 50 nM |
| COc1ccc(-n2c([C@H]3CCCN3C)nc3c(-c4cn(C)cn4)cc(C#N)cc3c2=O)cc1F [Example 98, (R)-3-(3-fluoro-4-methoxyphenyl)-8-(1-methyl-1H-imidazol-4-yl)-2-(1-methylpyrrolidin-2-yl)-4-oxo-3,4-dihydroquinazoline-6-carbonitrile] | 1 to 50 nM | 1 to 50 nM |
| COc1ccc(-n2c(-c3ncco3)nc3c(-c4ccc(C)nc4)cc(C#N)cc3c2=O)cc1F [Example 202, 3-(3-fluoro-4-methoxyphenyl)-8-(6-methylpyridin-3-yl)-2-(oxazol-2-yl)-4-oxo-3,4-dihydroquinazoline-6-carbonitrile] | > 1000 nM | > 1000 nM |
| COc1ccc(-n2c(C3CCCN3)nc3c(N4CCC(N5CCOCC5)CC4)cc(C#N)cc3c2=O)cc1F (stereo not drawn) [Example 114, 3-(3-fluoro-4-methoxyphenyl)-8-(4-morpholinopiperidine-1-yl)-4-oxo-2-(pyrrolidin-2-yl)-3,4-dihydroquinazoline-6-carbonitrile] | 1 to 50 nM | 51 to 150 nM |
| COc1ccc(-n2c(C3CCCN3)nc3c(-c4cnc5ccccc5c4)cc(C#N)cc3c2=O)cc1F (stereo not drawn) [Example 123, 3-(3-fluoro-4-methoxyphenyl)-4-oxo-2-(pyrrolidin-2-yl)-8-(quinolin-3-yl)-3,4-dihydroquinazoline-6-carbonitrile] | 1 to 50 nM | 1 to 50 nM |
| COc1c(F)cc(-n2c(C34CC(CN3)C4)nc3c(-c4ccc(C)nc4)cc(C#N)cc3c2=O)cc1F [Example 175, 2-(2-azabicyclo[2.1.1]hexan-1-yl)-3-(3,5-difluoro-4-methoxyphenyl)-8-(6-methylpyridin-3-yl)-4-oxo-3,4-dihydroquinazoline-6-carbonitrile] | 1 to 50 nM | 51 to 150 nM |
| N#Cc1cccc(-n2c([C@H]3CCCN3)nc3ccc([N+](=O)[O-])cc3c2=O)c1 [Example 21, (R)-3-(6-nitro-4-oxo-2-(pyrrolidin-2-yl)quinazolin-3 (4H)-yl)benzonitrile] | > 1000 nM | > 1000 nM |
| COc1ccc(-n2c([C@H]3CCCN3)nc3c(-c4cccnc4)cc([N+](=O)[O-])cc3c2=O)cc1F [Example 81, (R)-3-(3-fluoro-4-methoxyphenyl)-6-nitro-8-(pyridin-3-yl)-2-(pyrrolidin-2-yl) quinazolin-4 (3H)-one] | 1 to 50 nM | 1 to 50 nM |
| CN[C@H](C)c1nc2ccc([N+](=O)[O-])cc2c(=O)n1-c1ccc(OC)cc1 [Example 207, (R)-3-(4-methoxyphenyl)-2-(1-(methylamino)ethyl)-6-nitroquinazolin-4 (3H)-one] | 51 to 150 nM | 151 to 500 nM |
| COc1ccc(-n2c(C3CCCN3)nc3c(-c4ccc(-c5ccccc5)nc4)cc(C#N)cc3c2=O)cc1F (stereo not drawn) [Example 133, 3-(3-fluoro-4-methoxyphenyl)-4-oxo-8-(6-phenylpyridin-3-yl)-2-(pyrrolidin-2-yl)-3,4-dihydroquinazoline-6-carbonitrile] | 1 to 50 nM | 1 to 50 nM |
| COc1ccc(-n2c([C@H]3CCCN3)nc3cc(F)c(C#N)cc3c2=O)cc1 [Example 34, (R)-7-fluoro-3-(4-methoxyphenyl)-4-oxo-2-(pyrrolidin-2-yl)-3,4-dihydroquinazoline-6-carbonitrile] | 51 to 150 nM | 51 to 150 nM |
| COc1ccc(-n2c(C3CCCN3)nc3c(-c4ccc(CO)cc4)cc(C#N)cc3c2=O)cc1F (stereo not drawn) [Example 134, 3-(3-fluoro-4-methoxyphenyl)-8-(4-(hydroxymethyl)phenyl)-4-oxo-2-(pyrrolidin-2-yl)-3,4-dihydroquinazoline-6-carbonitrile] | 1 to 50 nM | 1 to 50 nM |
| COc1ccc(-n2c(C3CCCN3)nc3c(Cc4ccc(C)nc4)cc(C#N)cc3c2=O)cc1F (stereo not drawn) [Example 187, 3-(3-fluoro-4-methoxyphenyl)-8-((6-methylpyridin-3-yl)methyl)-4-oxo-2-(pyrrolidin-2-yl)-3,4-dihydroquinazoline-6-carbonitrile] | 51 to 150 nM | 151 to 500 nM |
